System: 324938-238-R-J1-PDC complex spheroids viability
Assay: Anticancer human tumor 324938-238-R-J1-PDC patient-derived bladder carcinoma cell line growth inhibition [CLK]
Settings: for IC50: curve of first compound; for viability, T/C: stronger effect = lower value
Method in brief: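 Multi-cell-type spheroids combined patient-derived tumor cells with HUVEC endothelial cells and human mesenchymal stem cells. Paired agents were dosed in half-log steps down from about clinical Cmax, or from 10 microM where Cmax was unknown.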
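Also: viability read after seven days of drug exposure.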
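For viability, T/C in this document: 100% = DMSO vehicle control wells.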

Q: With `CC1COCCN1c1cc(C2(S(C)(=N)=O)CC2)nc(-c2ccnc3[nH]ccc23)n1` (configuration not stated) + CN1CCN(c2cc(C(=O)Nc3cc4cc(-c5cnn(C)c5)ccc4cn3)ccn2)CC1 as the compound, how does the IC50 (second compound 0.0316 µM) read?
A: 1100 nM

Q: What about the IC50 (second compound 0.1 µM) of the same compound?
A: 400 nM

Q: And the IC50 (second compound 0.316 µM)?
A: < 31.6 nM

Q: What about the IC50 (second compound 1 µM) of the same compound?
A: < 31.6 nM

Q: What about the IC50 (second compound 3.16 µM) of the same compound?
A: < 31.6 nM

Q: And the IC50 (second compound 10 µM)?
A: < 31.6 nM

Q: And the viability, T/C (second compound 0.0316 µM, first compound 0.0316 µM)?
A: 80.1%

Q: What about the viability, T/C (second compound 0.0316 µM, first compound 0.1 µM) of the same compound?
A: 79.7%

Q: What about the viability, T/C (second compound 0.0316 µM, first compound 0.316 µM) of the same compound?
A: 70%

Q: And the viability, T/C (second compound 0.0316 µM, first compound 1 µM)?
A: 51.8%

Q: And the viability, T/C (second compound 0.0316 µM, first compound 3.16 µM)?
A: 28.8%

Q: What about the viability, T/C (second compound 0.0316 µM, first compound 10 µM) of the same compound?
A: 14.8%

Q: What about the viability, T/C (second compound 0.1 µM, first compound 0.0316 µM) of the same compound?
A: 55.3%

Q: And the viability, T/C (second compound 0.1 µM, first compound 0.1 µM)?
A: 52.7%

Q: And the viability, T/C (second compound 0.1 µM, first compound 0.316 µM)?
A: 55.3%

Q: And the viability, T/C (second compound 0.1 µM, first compound 1 µM)?
A: 39.8%

Q: What about the viability, T/C (second compound 0.1 µM, first compound 3.16 µM) of the same compound?
A: 22.9%

Q: And the viability, T/C (second compound 0.1 µM, first compound 10 µM)?
A: 11.5%

Q: And the viability, T/C (second compound 0.316 µM, first compound 0.0316 µM)?
A: 24.8%

Q: And the viability, T/C (second compound 0.316 µM, first compound 0.1 µM)?
A: 24.1%

Q: And the viability, T/C (second compound 0.316 µM, first compound 0.316 µM)?
A: 19%

Q: What about the viability, T/C (second compound 0.316 µM, first compound 1 µM) of the same compound?
A: 21.9%

Q: And the viability, T/C (second compound 0.316 µM, first compound 3.16 µM)?
A: 16.1%

Q: What about the viability, T/C (second compound 0.316 µM, first compound 10 µM) of the same compound?
A: 11.4%

Q: What about the viability, T/C (second compound 1 µM, first compound 0.0316 µM) of the same compound?
A: 1.54%

Q: And the viability, T/C (second compound 1 µM, first compound 0.1 µM)?
A: 1.37%

Q: And the viability, T/C (second compound 1 µM, first compound 0.316 µM)?
A: 1.72%

Q: And the viability, T/C (second compound 1 µM, first compound 1 µM)?
A: 1.08%

Q: And the viability, T/C (second compound 1 µM, first compound 3.16 µM)?
A: 1.06%

Q: And the viability, T/C (second compound 1 µM, first compound 10 µM)?
A: 0.6%

Q: And the viability, T/C (second compound 3.16 µM, first compound 0.0316 µM)?
A: 0.25%

Q: What about the viability, T/C (second compound 3.16 µM, first compound 0.1 µM) of the same compound?
A: 0.15%

Q: What about the viability, T/C (second compound 3.16 µM, first compound 0.316 µM) of the same compound?
A: 0.19%

Q: What about the viability, T/C (second compound 3.16 µM, first compound 1 µM) of the same compound?
A: 0.16%

Q: What about the viability, T/C (second compound 3.16 µM, first compound 3.16 µM) of the same compound?
A: 0.16%

Q: What about the viability, T/C (second compound 3.16 µM, first compound 10 µM) of the same compound?
A: 1.37%

Q: What about the viability, T/C (second compound 10 µM, first compound 0.0316 µM) of the same compound?
A: 0.16%

Q: What about the viability, T/C (second compound 10 µM, first compound 0.1 µM) of the same compound?
A: 0.17%

Q: And the viability, T/C (second compound 10 µM, first compound 0.316 µM)?
A: 0.21%

Q: And the viability, T/C (second compound 10 µM, first compound 1 µM)?
A: 0.16%

Q: And the viability, T/C (second compound 10 µM, first compound 3.16 µM)?
A: 0.22%

Q: What about the viability, T/C (second compound 10 µM, first compound 10 µM) of the same compound?
A: 0.22%

Source: PubChem BioAssay AID2060621 (Molecular Pharmacology Branch, DTP, NCI, 2025)
